Experimental data published in ChEMBL document CHEMBL1146654, “3-(7-Azaindolyl)-4-arylmaleimides as potent, selective inhibitors of glycogen synthase kinase-3” (Bioorg Med Chem Lett, 2004).
pIC50: −log10 of the molar value.

Assays:
[1] = target: Cyclin-dependent kinase 2/cyclin A (Homo sapiens, UniProt P24941); assay: Inhibition of Cyclin-dependent kinase 2-cyclin A; assay type: protein-complex assay
[2] = target: Platelet-derived growth factor receptor beta (Homo sapiens) (UniProt P09619); assay: Inhibition of PDGFRbeta; set-up: scale not given: the % may be the effect or the level left
Chain of Platelet-derived growth factor receptor beta (Homo sapiens) (P09619 whole entry): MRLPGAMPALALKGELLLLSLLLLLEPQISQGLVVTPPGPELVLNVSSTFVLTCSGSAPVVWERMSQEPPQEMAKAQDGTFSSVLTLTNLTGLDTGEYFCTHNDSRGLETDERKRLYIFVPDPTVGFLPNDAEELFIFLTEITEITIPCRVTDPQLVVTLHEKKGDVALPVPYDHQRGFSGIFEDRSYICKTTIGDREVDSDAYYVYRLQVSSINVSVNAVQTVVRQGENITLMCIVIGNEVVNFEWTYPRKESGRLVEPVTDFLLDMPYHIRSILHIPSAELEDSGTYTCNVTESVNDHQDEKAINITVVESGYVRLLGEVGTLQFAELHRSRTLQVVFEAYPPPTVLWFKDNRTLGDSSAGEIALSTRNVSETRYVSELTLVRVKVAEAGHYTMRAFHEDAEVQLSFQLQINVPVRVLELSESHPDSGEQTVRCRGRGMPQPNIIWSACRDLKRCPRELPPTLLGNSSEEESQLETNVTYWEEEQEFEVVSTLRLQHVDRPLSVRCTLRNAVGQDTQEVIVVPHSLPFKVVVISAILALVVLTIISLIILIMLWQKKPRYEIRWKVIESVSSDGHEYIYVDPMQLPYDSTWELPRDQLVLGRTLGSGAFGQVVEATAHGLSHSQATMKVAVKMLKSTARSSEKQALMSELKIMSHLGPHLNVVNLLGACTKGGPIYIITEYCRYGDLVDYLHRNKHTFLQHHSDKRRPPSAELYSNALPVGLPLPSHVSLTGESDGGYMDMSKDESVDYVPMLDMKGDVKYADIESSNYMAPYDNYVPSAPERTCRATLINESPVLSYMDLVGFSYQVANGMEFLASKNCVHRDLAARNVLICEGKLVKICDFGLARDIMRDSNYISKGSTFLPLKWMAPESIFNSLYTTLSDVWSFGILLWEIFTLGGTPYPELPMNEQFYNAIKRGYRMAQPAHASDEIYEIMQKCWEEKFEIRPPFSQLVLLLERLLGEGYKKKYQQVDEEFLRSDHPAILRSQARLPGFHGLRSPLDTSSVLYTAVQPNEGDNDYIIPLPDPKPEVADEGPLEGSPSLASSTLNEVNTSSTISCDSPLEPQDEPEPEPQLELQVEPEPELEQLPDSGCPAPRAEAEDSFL

[3] = target: T1, Protein kinase C epsilon type (Homo sapiens) (UniProt Q02156); assay: Inhibition of PKCepsilon; set-up: scale not given: the % may be the effect or the level left
T1 sequence (whole entry): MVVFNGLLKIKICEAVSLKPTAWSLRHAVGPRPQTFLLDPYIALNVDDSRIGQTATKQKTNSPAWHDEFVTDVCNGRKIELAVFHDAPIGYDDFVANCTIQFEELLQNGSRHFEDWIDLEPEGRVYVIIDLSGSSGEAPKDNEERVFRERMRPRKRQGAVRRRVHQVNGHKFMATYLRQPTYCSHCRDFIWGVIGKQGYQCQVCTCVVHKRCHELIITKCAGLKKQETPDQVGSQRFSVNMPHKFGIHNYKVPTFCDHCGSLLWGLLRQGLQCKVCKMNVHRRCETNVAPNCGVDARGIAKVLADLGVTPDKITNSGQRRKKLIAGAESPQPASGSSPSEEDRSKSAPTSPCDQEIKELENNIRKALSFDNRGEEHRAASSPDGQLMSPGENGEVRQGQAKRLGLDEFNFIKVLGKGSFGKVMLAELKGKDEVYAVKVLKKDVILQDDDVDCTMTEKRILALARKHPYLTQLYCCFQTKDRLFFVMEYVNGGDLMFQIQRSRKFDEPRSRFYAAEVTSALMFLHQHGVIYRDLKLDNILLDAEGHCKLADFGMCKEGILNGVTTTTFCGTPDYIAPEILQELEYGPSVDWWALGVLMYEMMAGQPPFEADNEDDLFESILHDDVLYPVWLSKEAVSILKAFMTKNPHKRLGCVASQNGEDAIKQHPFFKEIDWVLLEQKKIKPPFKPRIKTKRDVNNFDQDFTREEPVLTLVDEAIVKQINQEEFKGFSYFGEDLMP

[4] = target: Rho-associated protein kinase 2 (Rattus norvegicus) (UniProt Q62868); assay: (§1) Inhibition of ROCK-II; set-up: scale not given: the % may be the effect or the level left
Chain of Rho-associated protein kinase 2 (Rattus norvegicus) (Q62868 whole entry, looked up): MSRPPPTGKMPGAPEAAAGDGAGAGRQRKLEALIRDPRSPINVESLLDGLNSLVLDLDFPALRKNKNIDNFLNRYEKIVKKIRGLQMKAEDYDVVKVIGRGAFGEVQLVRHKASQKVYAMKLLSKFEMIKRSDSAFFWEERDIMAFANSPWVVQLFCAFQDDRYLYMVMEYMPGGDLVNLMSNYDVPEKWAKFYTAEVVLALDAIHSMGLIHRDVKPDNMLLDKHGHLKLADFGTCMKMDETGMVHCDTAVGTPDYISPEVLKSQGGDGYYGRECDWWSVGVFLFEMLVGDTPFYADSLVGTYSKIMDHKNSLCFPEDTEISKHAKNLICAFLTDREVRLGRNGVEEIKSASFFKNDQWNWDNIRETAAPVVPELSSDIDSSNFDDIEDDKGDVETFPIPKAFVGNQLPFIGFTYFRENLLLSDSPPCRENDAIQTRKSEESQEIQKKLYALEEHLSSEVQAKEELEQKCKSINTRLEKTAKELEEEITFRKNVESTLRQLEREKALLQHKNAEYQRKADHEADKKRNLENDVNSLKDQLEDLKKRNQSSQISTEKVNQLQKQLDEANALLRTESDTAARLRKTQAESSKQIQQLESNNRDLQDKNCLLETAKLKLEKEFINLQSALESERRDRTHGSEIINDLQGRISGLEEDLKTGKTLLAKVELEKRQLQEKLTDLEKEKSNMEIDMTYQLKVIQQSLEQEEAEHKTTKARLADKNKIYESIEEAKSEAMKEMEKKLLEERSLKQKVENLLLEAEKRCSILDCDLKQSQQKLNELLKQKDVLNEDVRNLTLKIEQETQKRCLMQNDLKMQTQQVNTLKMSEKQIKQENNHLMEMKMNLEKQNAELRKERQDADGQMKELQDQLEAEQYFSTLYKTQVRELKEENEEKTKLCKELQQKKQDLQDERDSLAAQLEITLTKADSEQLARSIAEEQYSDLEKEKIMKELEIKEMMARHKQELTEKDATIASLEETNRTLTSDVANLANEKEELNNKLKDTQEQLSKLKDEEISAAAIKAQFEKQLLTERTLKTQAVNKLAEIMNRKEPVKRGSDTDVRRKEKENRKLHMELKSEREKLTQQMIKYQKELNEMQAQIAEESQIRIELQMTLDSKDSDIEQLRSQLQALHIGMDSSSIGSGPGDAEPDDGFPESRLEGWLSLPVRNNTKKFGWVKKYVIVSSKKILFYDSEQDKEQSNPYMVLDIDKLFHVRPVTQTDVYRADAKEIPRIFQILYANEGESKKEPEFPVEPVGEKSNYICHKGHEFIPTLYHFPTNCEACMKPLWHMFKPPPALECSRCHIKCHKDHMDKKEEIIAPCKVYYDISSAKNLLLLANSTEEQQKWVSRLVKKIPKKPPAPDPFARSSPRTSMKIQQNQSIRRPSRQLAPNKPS

[5] = target: Rho-associated protein kinase 2 (Homo sapiens) (UniProt O75116); assay: as §1; set-up: scale not given: the % may be the effect or the level left
Chain of Rho-associated protein kinase 2 (Homo sapiens) (O75116 whole entry, looked up): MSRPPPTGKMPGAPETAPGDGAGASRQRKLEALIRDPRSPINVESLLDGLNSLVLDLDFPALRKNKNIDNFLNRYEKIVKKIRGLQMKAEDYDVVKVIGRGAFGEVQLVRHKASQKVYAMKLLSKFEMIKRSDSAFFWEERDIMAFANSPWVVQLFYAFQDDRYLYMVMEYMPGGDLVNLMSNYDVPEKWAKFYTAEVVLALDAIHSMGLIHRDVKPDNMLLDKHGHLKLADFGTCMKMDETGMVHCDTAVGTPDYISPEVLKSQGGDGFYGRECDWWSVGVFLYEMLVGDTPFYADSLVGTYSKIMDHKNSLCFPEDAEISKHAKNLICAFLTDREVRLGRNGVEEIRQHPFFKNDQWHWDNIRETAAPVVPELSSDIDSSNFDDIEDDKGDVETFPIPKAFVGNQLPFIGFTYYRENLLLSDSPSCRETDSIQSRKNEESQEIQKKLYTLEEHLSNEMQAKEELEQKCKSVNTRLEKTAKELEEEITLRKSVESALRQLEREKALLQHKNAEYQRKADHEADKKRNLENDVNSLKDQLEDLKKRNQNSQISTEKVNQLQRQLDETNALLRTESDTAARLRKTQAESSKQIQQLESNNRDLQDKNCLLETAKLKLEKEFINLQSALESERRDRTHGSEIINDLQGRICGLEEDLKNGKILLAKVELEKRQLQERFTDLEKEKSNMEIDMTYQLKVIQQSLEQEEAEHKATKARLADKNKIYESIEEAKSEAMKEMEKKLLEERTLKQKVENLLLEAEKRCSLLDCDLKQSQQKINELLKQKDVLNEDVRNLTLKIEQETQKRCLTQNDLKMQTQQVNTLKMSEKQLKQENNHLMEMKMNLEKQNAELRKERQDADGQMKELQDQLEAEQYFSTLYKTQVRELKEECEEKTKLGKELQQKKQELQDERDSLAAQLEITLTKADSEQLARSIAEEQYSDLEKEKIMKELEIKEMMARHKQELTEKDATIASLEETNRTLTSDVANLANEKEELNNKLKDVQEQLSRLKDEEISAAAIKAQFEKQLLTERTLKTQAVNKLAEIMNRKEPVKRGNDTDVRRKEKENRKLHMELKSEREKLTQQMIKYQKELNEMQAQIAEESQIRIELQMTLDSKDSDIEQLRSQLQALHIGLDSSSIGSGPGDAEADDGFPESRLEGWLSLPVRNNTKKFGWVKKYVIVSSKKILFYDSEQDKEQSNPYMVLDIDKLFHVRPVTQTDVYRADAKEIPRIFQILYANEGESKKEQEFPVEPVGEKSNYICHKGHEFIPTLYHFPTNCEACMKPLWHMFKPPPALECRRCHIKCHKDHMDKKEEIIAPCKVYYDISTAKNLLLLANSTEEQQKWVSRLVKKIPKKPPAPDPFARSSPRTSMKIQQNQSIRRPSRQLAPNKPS

[6] = target: T2, Dual specificity mitogen-activated protein kinase kinase 7 (Homo sapiens) (UniProt O14733); assay: Inhibition of Mitogen activated protein kinase kinase 7 beta; set-up: scale not given: the % may be the effect or the level left
T2 sequence (whole entry): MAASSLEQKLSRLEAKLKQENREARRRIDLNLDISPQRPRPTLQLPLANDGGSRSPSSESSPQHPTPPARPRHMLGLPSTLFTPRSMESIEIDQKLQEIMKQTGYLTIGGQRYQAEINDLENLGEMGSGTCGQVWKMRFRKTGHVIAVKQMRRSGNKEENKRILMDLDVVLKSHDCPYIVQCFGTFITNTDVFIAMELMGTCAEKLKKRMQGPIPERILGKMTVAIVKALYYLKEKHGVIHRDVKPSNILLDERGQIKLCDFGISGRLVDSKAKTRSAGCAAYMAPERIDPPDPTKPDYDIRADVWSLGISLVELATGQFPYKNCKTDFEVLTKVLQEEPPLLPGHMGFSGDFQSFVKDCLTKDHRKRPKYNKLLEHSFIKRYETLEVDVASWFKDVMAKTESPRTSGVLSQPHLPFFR

[7] = target: Dual specificity mitogen-activated protein kinase kinase 1 (Homo sapiens) (UniProt Q02750); assay: Inhibition of mitogen activated protein kinase kinase 1; set-up: scale not given: the % may be the effect or the level left
[8] = target: Protein kinase C theta type (Homo sapiens) (UniProt Q04759); assay: Inhibition of PKCtheta; set-up: scale not given: the % may be the effect or the level left
Chain of Protein kinase C theta type (Homo sapiens) (Q04759 whole entry, looked up): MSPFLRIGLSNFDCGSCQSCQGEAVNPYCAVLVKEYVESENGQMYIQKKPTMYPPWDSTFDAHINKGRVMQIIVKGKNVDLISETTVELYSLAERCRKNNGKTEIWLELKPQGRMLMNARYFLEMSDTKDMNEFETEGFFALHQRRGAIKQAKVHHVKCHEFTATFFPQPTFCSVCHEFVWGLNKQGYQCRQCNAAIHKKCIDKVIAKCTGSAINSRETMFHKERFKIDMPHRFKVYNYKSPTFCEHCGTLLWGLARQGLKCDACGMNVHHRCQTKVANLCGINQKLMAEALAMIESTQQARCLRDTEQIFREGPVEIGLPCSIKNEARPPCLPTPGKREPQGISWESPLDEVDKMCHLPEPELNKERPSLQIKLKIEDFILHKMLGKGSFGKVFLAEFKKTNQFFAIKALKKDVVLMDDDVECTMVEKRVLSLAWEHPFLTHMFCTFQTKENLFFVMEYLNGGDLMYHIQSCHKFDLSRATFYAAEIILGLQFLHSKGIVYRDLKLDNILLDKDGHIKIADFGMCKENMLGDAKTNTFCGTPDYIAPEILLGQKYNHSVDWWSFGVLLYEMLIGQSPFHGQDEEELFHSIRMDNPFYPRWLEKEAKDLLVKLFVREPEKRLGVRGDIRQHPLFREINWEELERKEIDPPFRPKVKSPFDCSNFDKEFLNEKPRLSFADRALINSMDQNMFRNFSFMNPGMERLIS

[9] = target: Serine/threonine-protein kinase PAK 2 (Homo sapiens) (UniProt Q13177); assay: Inhibition of PAK2; set-up: scale not given: the % may be the effect or the level left
[10] = target: Mitogen-activated protein kinase 14 (Homo sapiens) (UniProt Q16539); assay: Inhibition of Stress activated protein kinase 2a; set-up: scale not given: the % may be the effect or the level left
Chain of Mitogen-activated protein kinase 14 (Homo sapiens) (Q16539 whole entry): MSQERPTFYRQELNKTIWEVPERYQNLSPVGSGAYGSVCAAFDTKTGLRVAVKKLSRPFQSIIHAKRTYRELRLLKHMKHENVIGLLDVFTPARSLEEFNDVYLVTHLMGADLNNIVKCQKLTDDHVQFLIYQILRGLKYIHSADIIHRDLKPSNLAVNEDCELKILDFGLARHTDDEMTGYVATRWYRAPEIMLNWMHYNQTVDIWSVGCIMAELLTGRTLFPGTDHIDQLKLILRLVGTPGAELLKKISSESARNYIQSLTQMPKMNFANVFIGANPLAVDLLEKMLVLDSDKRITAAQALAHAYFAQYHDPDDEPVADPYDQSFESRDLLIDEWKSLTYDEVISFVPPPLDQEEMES

[11] = target: T3, Calcium/calmodulin-dependent protein kinase type IV (Homo sapiens) (UniProt Q16566); assay: Inhibition of Calcium/calmodulin-dependent protein kinase type IV; set-up: scale not given: the % may be the effect or the level left
T3 sequence (whole entry): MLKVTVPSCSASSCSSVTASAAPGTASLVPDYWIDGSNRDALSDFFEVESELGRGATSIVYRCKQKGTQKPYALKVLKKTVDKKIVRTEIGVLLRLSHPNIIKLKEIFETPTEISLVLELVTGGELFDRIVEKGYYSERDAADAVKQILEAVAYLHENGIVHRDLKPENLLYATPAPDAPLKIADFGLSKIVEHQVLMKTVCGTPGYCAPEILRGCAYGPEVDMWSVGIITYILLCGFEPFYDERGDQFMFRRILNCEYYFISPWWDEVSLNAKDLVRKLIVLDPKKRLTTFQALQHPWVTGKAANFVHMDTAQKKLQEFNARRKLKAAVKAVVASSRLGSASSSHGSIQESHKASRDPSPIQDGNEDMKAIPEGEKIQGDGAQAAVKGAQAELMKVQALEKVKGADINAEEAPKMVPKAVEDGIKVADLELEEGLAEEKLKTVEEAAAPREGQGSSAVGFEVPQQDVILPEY

[12] = target: Cyclin-dependent kinase 5/CDK5 activator 1 (Homo sapiens) (UniProt Q00535+Q15078); assay: Inhibition of Cyclin-dependent kinase 5-p35nck5a; assay type: protein-complex assay; set-up: scale not given: the % may be the effect or the level left
[13] = target: T4, 3-phosphoinositide-dependent protein kinase 1 (Homo sapiens) (UniProt O15530); assay: Inhibition of PDK1; set-up: scale not given: the % may be the effect or the level left
T4 sequence (whole entry): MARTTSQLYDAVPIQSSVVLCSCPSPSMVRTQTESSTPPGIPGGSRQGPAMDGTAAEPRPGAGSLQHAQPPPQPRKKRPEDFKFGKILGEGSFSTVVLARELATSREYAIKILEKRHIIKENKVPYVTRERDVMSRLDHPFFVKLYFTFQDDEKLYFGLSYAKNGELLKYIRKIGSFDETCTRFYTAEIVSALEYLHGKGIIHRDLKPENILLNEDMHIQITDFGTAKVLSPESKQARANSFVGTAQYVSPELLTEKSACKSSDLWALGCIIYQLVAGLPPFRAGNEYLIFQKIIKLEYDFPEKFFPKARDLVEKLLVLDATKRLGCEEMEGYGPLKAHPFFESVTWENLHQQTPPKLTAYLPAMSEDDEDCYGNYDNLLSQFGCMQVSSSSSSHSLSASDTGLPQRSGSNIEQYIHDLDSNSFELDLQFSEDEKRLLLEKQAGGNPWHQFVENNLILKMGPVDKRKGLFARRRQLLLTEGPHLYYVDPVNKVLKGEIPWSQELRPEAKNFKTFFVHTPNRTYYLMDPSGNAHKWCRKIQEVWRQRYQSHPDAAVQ

Row | pIC50 [1] | Activity [2] | Activity [3] | Activity [4] | Activity [5] | Activity [6] | Activity [7] | Activity [8] | Activity [9] | Activity [10] | Activity [11] | Activity [12] | Activity [13] | Structure (SMILES)
1 | 5.55 | 77% | 67% | 97% | 90% | 68% | 74% | 66% | 78% | 81% | 82% | 25% | 79% | O=C1NC(=O)C(c2cn(CCCO)c3ncccc23)=C1c1ncc(C(F)(F)F)cc1Cl
2 | 6.37 | 96% | 49% | 94% | 100% | 71% | 94% | 46% | 94% | 84% | 82% | 9% | 78% | COCCCn1cc(C2=C(c3ccccc3O)C(=O)NC2=O)c2cccnc21
3 | 7.17 | 93% | 54% | 91% | 78% | 101% | 100% | 71% | 93% | 109% | 91% | 2% | 20% | COc1ccccc1C1=C(c2cn(CCCNC(=O)OC(C)(C)C)c3ncccc23)C(=O)NC1=O
